In patent US20040053857A1, “Glycoalkaloid compositions and various uses thereof” (priority 2002, published 2004):

Key:
Type in all cases: cell-based
NO36 tumour cell line [1] = assay: Effect of solamargine:solasonine ratio on cytotoxicity, MTT cell proliferation assay; settings: NO36, 6 day assay, 5000 cells
Method: (§1) Tumour cell lines 786-O and NO36 and normal fibroblasts NHDF-Ad were used in 5000 cell assays, for three, six and six day assays, respectively, to study the effect of solamargine:solasonine ratio on cytotoxicity.
(§2) Solutions of 4 mg/mL solamargine and 4 mg/mL solasonine in 3% acetic acid were mixed to provide the various ratios. These mixtures were diluted in the culture medium appropriate to the cell line used to concentrations ranging from 0.32 to 40 ug/mL. Fifty uL aliquots were added to tissue culture wells seeded with 5000 cells in 150 uL culture medium 24 hours previously.
(§3) Cell survival was assessed using the MTT cell proliferation assay following four days growth after application of the alkaloids. The formazan absorbance of alkaloid treated wells relative to wells treated with an equivalently dilute acetic acid solution expressed as a percentage has been taken as percentage cell survival.

[2] = system: NHDF-Ad normal fibroblasts; assay: as above; settings: 6 day assay, 5000 cells
Method: as §1, §2, §3

786-O tumour cell line [3] = assay: as above; settings: 3 day assay, 5000 cells
Method: as §1, §2, §3

786-O tumour cell line [4] = assay: Dose per cell at LD50, 650 cell six day format (dose per cell not limiting); settings: 650 cells
Source text: (§4) Tumour cell line LNCaP was used at 7500 cells in a six day assay format while 786-O was used in a 650 cell, six day format where dose per cell is not a limiting factor determining LD50 as well as in 5000 cell, three day format where dose per cell does limit LD50.

[5] = system: NHRE fibroblast cell line; assay: Dose per cell at LD50, 2500 cell 3 day assay; settings: NHRE normal cells, 2500 cells, dose per cell limiting
Source text: (§5) Tumour cell lines A2058, NO36 and LS174T and the normal adult dermal fibroblast line NHDF-Ad were used in 5000 cell, six day assays to compare dose per cell at LD50 values for BEC (1:1 solamargine:solasonine), solamargine, solasonine and an equimolar mixture of solamargine and solasonine. Data from the fibroblast cell line NHRE in a 2500 cell 3 day assay was also obtained.

786-O tumour cell line [6] = assay: Dose per cell at LD50, 5000 cell three day format (dose per cell limiting); settings: 5000 cells
Source text: as §4

LNCaP tumour cell line = assay: Dose per cell at LD50, 7500 cell six day assay; settings: 7500 cells, dose per cell limiting
Source text: as §4

NO36 tumour cell line [7] = assay: Dose per cell at LD50, 5000 cell six day assay; settings: NO36, 5000 cells, dose per cell limiting
Source text: as §5

[8] = system: NHDF-Ad normal adult dermal fibroblast line; assay: Dose per cell at LD50, 5000 cell six day assay; settings: NHDF-Ad normal cells, 5000 cells, dose per cell limiting
Source text: as §5

LS174T tumour cell line = assay: Dose per cell at LD50, 5000 cell six day assay; settings: 5000 cells, dose per cell limiting
Source text: as §5

A2058 tumour cell line = assay: Dose per cell at LD50, 5000 cell six day assay; settings: A2058, 5000 cells, dose per cell limiting
Source text: as §5

## C[C@@H]1CC[C@@]2(NC1)O[C@H]1C[C@H]3[C@@H]4CC=C5C[C@@H](O[C@@H]6O[C@H](CO)[C@@H](O[C@@H]7O[C@@H](C)[C@H](O)[C@@H](O)[C@H]7O)[C@H](O)[C@H]6O[C@@H]6O[C@@H](C)[C@H](O)[C@@H](O)[C@H]6O)CC[C@]5(C)[C@H]4CC[C@]3(C)[C@H]1[C@@H]2C [Solamargine, solamargine]
NO36 tumour cell line [1]
  Dose per cell at LD50,: 209 pg
[2]
  Dose per cell at LD50,: 112 pg
786-O tumour cell line [3]
  Dose per cell at LD50,: 304 pg
786-O tumour cell line [4]
  Dose per cell at LD50, pg/cell of total alkaloid: 1394.0 pg/cell
[5]
  Dose per cell at LD50, pg/cell of total alkaloid: 227.9 pg/cell
786-O tumour cell line [6]
  Dose per cell at LD50, pg/cell of total alkaloid: 208.0 pg/cell
LNCaP tumour cell line
  Dose per cell at LD50, pg/cell of total alkaloid: 121.9 pg/cell
NO36 tumour cell line [7]
  Dose per cell at LD50, pg/cell of total alkaloid: 154.8 pg/cell
[8]
  Dose per cell at LD50, pg/cell of total alkaloid: 209.2 pg/cell
LS174T tumour cell line
  Dose per cell at LD50, pg/cell of total alkaloid: 162.8 pg/cell
A2058 tumour cell line
  Dose per cell at LD50, pg/cell of total alkaloid: 199.0 pg/cell

## C[C@@H]1CC[C@@]2(NC1)O[C@H]1C[C@H]3[C@@H]4CC=C5C[C@@H](O[C@@H]6O[C@H](CO)[C@H](O)[C@H](O[C@@H]7O[C@H](CO)[C@@H](O)[C@H](O)[C@H]7O)[C@H]6O[C@@H]6O[C@@H](C)[C@H](O)[C@@H](O)[C@H]6O)CC[C@]5(C)[C@H]4CC[C@]3(C)[C@H]1[C@@H]2C [Solasonine, solasonine]
NO36 tumour cell line [1]
  Dose per cell at LD50,: 613 pg
[2]
  Dose per cell at LD50,: 400 pg
786-O tumour cell line [3]
  Dose per cell at LD50,: 500 pg
786-O tumour cell line [4]
  Dose per cell at LD50, pg/cell of total alkaloid: 5606.0 pg/cell
[5]
  Dose per cell at LD50, pg/cell of total alkaloid: 1657.7 pg/cell
786-O tumour cell line [6]
  Dose per cell at LD50, pg/cell of total alkaloid: >400 pg/cell
LNCaP tumour cell line
  Dose per cell at LD50, pg/cell of total alkaloid: 432.5 pg/cell
NO36 tumour cell line [7]
  Dose per cell at LD50, pg/cell of total alkaloid: 613.2 pg/cell
[8]
  Dose per cell at LD50, pg/cell of total alkaloid: 587.6 pg/cell
LS174T tumour cell line
  Dose per cell at LD50, pg/cell of total alkaloid: >400 pg/cell
A2058 tumour cell line
  Dose per cell at LD50, pg/cell of total alkaloid: 685 pg/cell
